Article PMC10165273, “Itch receptor MRGPRX4 interacts with the receptor activity–modifying proteins” (The Journal of Biological Chemistry, 2023)
“And” between values parts separate entries of the source, which are not always exact repeats. Identical values can stand only once. Like-named read-outs stand apart in the source and are kept apart here.

Experiments:
Assay type in all cases: cell-based
MRGPRX4 + RAMP3 [1] = biological target: T1, MRGPRX4 + RAMP3 (Homo sapiens, UniProt Q96LA9); experiment: IP1 accumulation, MRGPRX4 coexpressed with RAMP3; set-up: key to IP1 Basal / response to agonist, X4:ramp3.I:0.25 / response to agonist, X4:ramp3.I:0.5 / response to agonist, X4:ramp3.I:1: % IP1; unstimulated mock = 0%, fully stimulated MRGPRX4 = 100%; conditions: for activation at 100 µM / activation at 20 µM / activation at 4 µM / activation at 0.8 µM / activation at […] / activation at 0.032 µM: 2 h, Fig S3f, read-out: IP1 accumulation; for activation at 100 µM: log [DCA] (M) -4; for activation at 20 µM: log [DCA] (M) -4.69897; for activation at 4 µM: log [DCA] (M) -5.39794; for activation at 0.8 µM: log [DCA] (M) -6.09691; for activation at […]: log [DCA] (M) -6.79588; for activation at 0.032 µM: log [DCA] (M) -7.49485
T1 construct: expressed in transfected cells; host or cells: HEK293T
Procedure: (§1) HEK293T cells were transfected with 1 pg/cell of MRGPRX4 DNA, and the amount of DNA was kept constant at 2 pg/cell with pcDNA3.1(+) empty vector, unless otherwise specified. Twenty four hours after transfection, IP1 assay was performed as previously described ([51]). When applicable, cells were treated with 1 μM YM254890 (YM) or different concentrations of U73122 for 1 h prior to addition of agonist or buffer. After incubation for 2 h, HTRF reagents and IP1 calibration standards were added and incubated for 2 h in the dark at room temperature. Time-resolved fluorescence signals were read on the BioTek Synergy NEO-TRF Hybrid multi-mode reader (BioTek Instruments). All data were carried out in three independent experiments with three technical replicate each.
(§2) For RAMP DNA titration assay, HEK293T cells were cotransfected with a constant amount of 1 pg/cell of FLAG-MRGPRX4-GFP10-1D4 to which a serial dilution of 1, 0.75, 0.5, 0.25, or 0 pg/cell of each HA-RAMP-OLLAS was added. For a homogenous transfection of MRGPRX4, a master mix of MRGPRX4 DNA was made prior to addition of the RAMP DNA. […]
(§3) Data reduction, standard calibration, and transformation of HTRF data were performed as previously described ([51]). Normalized IP1 values were calculated relative to the unstimulated mock-transfected cells (set to 0%) and fully stimulated MRGPRX4 (alone if applicable) (set to 100%).

MRGPRX4 + RAMP2 = biological target: T2, MRGPRX4 + RAMP2 (Homo sapiens, UniProt Q96LA9); experiment: IP1 accumulation, MRGPRX4 coexpressed with RAMP2; set-up: key to response to agonist, X4:ramp2.I:2: % IP1: mock-transfected unstimulated = 0%, fully stimulated MRGPRX4 = 100%; key to IP1 Basal / response to agonist, X4:ramp2.I:0.25 / response to agonist, X4:ramp2.I:0.5 / response to agonist, X4:ramp2.I:1: % IP1; unstimulated mock = 0%, fully stimulated MRGPRX4 = 100%; conditions: for activation at 20 µM / activation at 4 µM / activation at 0.8 µM / activation at […] / activation at 0.032 µM / activation at 100 µM: 2 h, Fig S3e, read-out: IP1 accumulation; for activation at 20 µM: log [DCA] (M) -4.69897; for activation at 4 µM: log [DCA] (M) -5.39794; for activation at 0.8 µM: log [DCA] (M) -6.09691; for activation at […]: log [DCA] (M) -6.79588; for activation at 0.032 µM: log [DCA] (M) -7.49485; for activation at 100 µM: log [DCA] (M) -4; for IP1 Basal / IP1 span (Emax minus basal) / Emax: normalized per agonist; for Emax: read-out: IP1 Emax
T2 construct: expressed in transfected cells; host or cells: HEK293T
Procedure: as §1, §2, §3

MRGPRX4 + RAMP3 [2] = biological target: T1, MRGPRX4 + RAMP3; experiment: IP1 accumulation, MRGPRX4 coexpressed with RAMP3; set-up: key: % IP1; unstimulated mock = 0%, fully stimulated MRGPRX4 = 100%; conditions: Figure 4c-f; agonist 100µM; X4:ramp3 1:2; MRGPRX4 = 100
[3] = MRGPRX4 + RAMP3 0.25 pg (Fig. S3), normalized per agonist
[4] = MRGPRX4 + RAMP3 0.5 pg (Fig. S3), normalized per agonist
[5] = MRGPRX4 + RAMP3 1 pg (Fig. S3), normalized per agonist
[6] = MRGPRX4 + RAMP3 2 pg (Fig. S3), normalized per agonist
[7] = MRGPRX4 + RAMP2 0.25 pg (Fig. S3)
[8] = MRGPRX4 + RAMP2 0.5 pg (Fig. S3)

T1 sequence (Q96LA9 whole entry): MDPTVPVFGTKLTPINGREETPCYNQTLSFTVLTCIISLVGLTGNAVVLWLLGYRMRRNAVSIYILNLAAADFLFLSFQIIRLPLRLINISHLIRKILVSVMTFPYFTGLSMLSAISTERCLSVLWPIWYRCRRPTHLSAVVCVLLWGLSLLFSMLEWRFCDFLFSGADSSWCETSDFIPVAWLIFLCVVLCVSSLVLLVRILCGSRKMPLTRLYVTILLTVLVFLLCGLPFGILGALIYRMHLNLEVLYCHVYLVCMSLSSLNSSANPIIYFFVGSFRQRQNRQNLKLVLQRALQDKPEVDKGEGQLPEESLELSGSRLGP
T2 sequence (Q96LA9 whole entry): as above

## C[C@H](CCC(=O)O)[C@H]1CC[C@H]2[C@@H]3CC[C@@H]4C[C@H](O)CC[C@]4(C)[C@H]3C[C@H](O)[C@]12C [DCA, deoxycholic acid]
MRGPRX4 + RAMP3 [1]; ratio MRGPRX4:RAMP3 1:0.25
  activation at 100 µM: 92.7%
  activation at 20 µM: 69.5%
  activation at 4 µM: 48.4%
  activation at 0.8 µM: 35.7%
  activation at […]: 34.1%
  activation at 0.032 µM: 31.5%
MRGPRX4 + RAMP3 [1]; ratio MRGPRX4:RAMP3 1:0.5
  activation at 100 µM: 90.4%
  activation at 20 µM: 53.8%
  activation at 4 µM: 33.6%
  activation at 0.8 µM: 22%
  activation at […]: 21.2%
  activation at 0.032 µM: 21.7%
MRGPRX4 + RAMP3 [1]; ratio MRGPRX4:RAMP3 1:1
  activation at 100 µM: 97.9%
  activation at 20 µM: 49.2%
  activation at 4 µM: 28.3%
  activation at 0.8 µM: 19.5%
  activation at […]: 19.6%
  activation at 0.032 µM: 18.9%
MRGPRX4 + RAMP3 [1]; ratio MRGPRX4:RAMP3 1:2
  activation at 20 µM: 48.1%
  activation at 4 µM: 23.1%
  activation at […]: 16.8%
  activation at 0.032 µM: 15.3%
MRGPRX4 + RAMP3 [1]; Figure 4a bottom, DNA ratio MRGPRX4:RAMP3 1:0.75, MRGPRX4 alone = 100, read-out: efficacy
  Emax: 74.9%
MRGPRX4 + RAMP3 [1]; Figure 4c-f, agonist 100µM, X4:ramp3 1:0.25, MRGPRX4 = 100
  response to agonist, X4:ramp3.I:0.25: 83.1455 and 78.9266
MRGPRX4 + RAMP3 [1]; Figure 4c-f, agonist 100µM, X4:ramp3 1:0.5, MRGPRX4 = 100
  response to agonist, X4:ramp3.I:0.5: 72.4625 and 76.3406
MRGPRX4 + RAMP3 [1]; Figure 4c-f, agonist 100µM, X4:ramp3 1:1, MRGPRX4 = 100
  response to agonist, X4:ramp3.I:1: 72.2618 and 56.5732
MRGPRX4 + RAMP3 [1]; [3]
  IP1 Basal: 26.80
  IP1 span (top minus basal of the concentration-response fit): 84.2%
MRGPRX4 + RAMP3 [1]; MRGPRX4 + RAMP3 0.25 pg (Fig. S3), normalized per agonist, read-out: IP1 Emax
  Emax: 111%
MRGPRX4 + RAMP3 [1]; [4]
  IP1 Basal: 21.60
  IP1 span (top minus basal of the concentration-response fit): 78.8%
MRGPRX4 + RAMP3 [1]; MRGPRX4 + RAMP3 0.5 pg (Fig. S3), normalized per agonist, read-out: IP1 Emax
  Emax: 100%
MRGPRX4 + RAMP3 [1]; [5]
  IP1 Basal: 23.28
  IP1 span (top minus basal of the concentration-response fit): 92.1%
MRGPRX4 + RAMP3 [1]; MRGPRX4 + RAMP3 1 pg (Fig. S3), normalized per agonist, read-out: IP1 Emax
  Emax: 115%
MRGPRX4 + RAMP3 [1]; [6]
  IP1 Basal: 14.52
  IP1 span (top minus basal of the concentration-response fit): 85.8%
MRGPRX4 + RAMP3 [1]; MRGPRX4 + RAMP3 2 pg (Fig. S3), normalized per agonist, read-out: IP1 Emax
  Emax: 100%
MRGPRX4 + RAMP2; ratio MRGPRX4:RAMP2 1:0.25
  activation at 20 µM: 59.5%
  activation at 4 µM: 39%
  activation at 0.8 µM: 28.2%
  activation at […]: 28.2%
  activation at 0.032 µM: 29.4%
MRGPRX4 + RAMP2; ratio MRGPRX4:RAMP2 1:0.5
  activation at 20 µM: 51.9%
  activation at 4 µM: 28.9%
  activation at 0.8 µM: 21.9%
  activation at […]: 21.5%
MRGPRX4 + RAMP2; ratio MRGPRX4:RAMP2 1:1
  activation at 100 µM: 56.6%
  activation at 20 µM: 35%
  activation at 0.8 µM: 13.8%
  activation at […]: 13.1%
  activation at 0.032 µM: 13.2%
MRGPRX4 + RAMP2; ratio MRGPRX4:RAMP2 1:2
  activation at 100 µM: 20.6%
  activation at 20 µM: 10.3%
  activation at 4 µM: 5.86%
  activation at […]: 6.3%
  activation at 0.032 µM: 5.62%
MRGPRX4 + RAMP2; Figure 4c-f, agonist 100µM, X4:ramp2 1:0.25, MRGPRX4 = 100
  response to agonist, X4:ramp2.I:0.25: 82.2333 and 78.588
MRGPRX4 + RAMP2; Figure 4c-f, agonist 100µM, X4:ramp2 1:0.5, MRGPRX4 = 100
  response to agonist, X4:ramp2.I:0.5: 59.4831 and 67.5869
MRGPRX4 + RAMP2; Figure 4c-f, agonist 100µM, X4:ramp2 1:1, MRGPRX4 = 100
  response to agonist, X4:ramp2.I:1: 42.5729 and 40.2351
MRGPRX4 + RAMP2; Figure 4c-f, agonist 100µM, X4:ramp2 1:2, MRGPRX4 = 100
  response to agonist, X4:ramp2.I:2: 19.2213 and 20.608
MRGPRX4 + RAMP2; [7]
  IP1 Basal: 22.40
  IP1 span (Emax minus basal): 84.8%
  Emax: 107%
MRGPRX4 + RAMP2; [8]
  IP1 Basal: 17.50
  IP1 span (Emax minus basal): 77%
  Emax: 94.5%
MRGPRX4 + RAMP2; MRGPRX4 + RAMP2 1 pg (Fig. S3)
  IP1 Basal: 11.18
  IP1 span (Emax minus basal): 45%
  Emax: 56.2%
MRGPRX4 + RAMP2; MRGPRX4 + RAMP2 2 pg (Fig. S3)
  IP1 Basal: 5.412
  IP1 span (Emax minus basal): 24.4%
  Emax: 29.9%
MRGPRX4 + RAMP3 [2]
  response to agonist, X4:ramp3.I:2: 55.7055 and 63.4334
